Measured values taken from ChEMBL document CHEMBL5365451, “Discovery of CVN417, a Novel Brain-Penetrant α6-Containing Nicotinic Receptor Antagonist for the Modulation of Motor Dysfunction” (J Med Chem, 2023).
One block for each molecule: values may come before it. The source made the active and inactive calls. The rule behind the calls is not given here.

Legend:
[1] = Antagonist activity at human alpha6-alpha3/beta2/beta3 V273S mutant nAChR expressed in HEK293 cells assessed as nicotine-induced intracellular calcium release incubated for 15 mins by FLIPR analysis; format: cell-based; conditions: HEK293, 0.25 h
Brain = experiment: Drug concentration in po dosed Sprague-Dawley rat brain measured after 2 hrs by LC-MS/MS analysis; format: functional, organism-based; conditions: dose 3-25 mg/kg
[2] = molecular target: Neuronal acetylcholine receptor; alpha3/beta4 (Homo sapiens, UniProt P30926+P32297); experiment: Antagonist activity at human alpha3/beta4 nAChR expressed in HEK293 cells assessed as nicotine-induced intracellular calcium release incubated for 15 mins by FLIPR analysis; format: cell-based
Neuronal acetylcholine receptor; alpha3/beta4, sequence (P30926 whole entry): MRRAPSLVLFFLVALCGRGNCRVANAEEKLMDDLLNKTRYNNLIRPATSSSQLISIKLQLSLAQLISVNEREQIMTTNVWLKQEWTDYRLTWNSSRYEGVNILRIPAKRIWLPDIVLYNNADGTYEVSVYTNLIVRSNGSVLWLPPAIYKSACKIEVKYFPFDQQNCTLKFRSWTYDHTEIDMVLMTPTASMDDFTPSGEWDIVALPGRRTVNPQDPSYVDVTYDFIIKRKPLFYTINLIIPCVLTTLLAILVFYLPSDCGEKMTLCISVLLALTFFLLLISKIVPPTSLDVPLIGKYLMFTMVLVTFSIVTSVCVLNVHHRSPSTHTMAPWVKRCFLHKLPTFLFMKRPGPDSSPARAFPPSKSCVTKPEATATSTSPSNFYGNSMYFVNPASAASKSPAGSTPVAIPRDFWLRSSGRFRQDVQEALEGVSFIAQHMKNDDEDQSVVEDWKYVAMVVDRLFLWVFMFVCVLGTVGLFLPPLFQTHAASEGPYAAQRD
Neuronal acetylcholine receptor; alpha3/beta4, sequence (P32297 whole entry): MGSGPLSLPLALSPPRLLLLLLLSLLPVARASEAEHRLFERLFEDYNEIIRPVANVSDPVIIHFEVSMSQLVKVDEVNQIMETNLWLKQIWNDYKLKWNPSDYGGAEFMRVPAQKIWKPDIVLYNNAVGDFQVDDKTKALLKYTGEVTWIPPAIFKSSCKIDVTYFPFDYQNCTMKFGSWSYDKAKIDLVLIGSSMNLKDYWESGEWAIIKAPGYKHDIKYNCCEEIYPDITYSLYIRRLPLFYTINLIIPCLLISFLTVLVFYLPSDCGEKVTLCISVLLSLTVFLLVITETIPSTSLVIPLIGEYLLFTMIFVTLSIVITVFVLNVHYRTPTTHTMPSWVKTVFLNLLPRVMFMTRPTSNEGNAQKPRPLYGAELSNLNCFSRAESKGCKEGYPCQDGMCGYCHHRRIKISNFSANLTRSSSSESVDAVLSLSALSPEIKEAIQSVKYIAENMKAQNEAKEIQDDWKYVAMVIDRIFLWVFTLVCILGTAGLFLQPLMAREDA

[3] = Clearance in Sprague-Dawley rat at 0.5 mg/kg, iv by LC-MS/MS analysis; format: ADME, organism-based; conditions: in vivo
[4] = Metabolic stability in human hepatocytes assessed as intrinsic clearance measured per 10^6 cells; format: ADME, cell-based, Hepatocyte
[5] = Oral bioavailability in Sprague-Dawley rat at 3 mg/kg by LC-MS/MS analysis; format: ADME, organism-based; conditions: in vivo
[6] = Volume of distribution at steady state in Sprague-Dawley rat at 1 mg/kg, iv by LC-MS/MS analysis; format: ADME, organism-based; conditions: in vivo, read-out: Vdss
[7] = Metabolic stability in mouse liver microsome assessed as intrinsic clearance preincubated for 60 mins followed by NADPH addition and measured after 60 mins by LC-MS/MS analysis; format: ADME; conditions: liver microsomes, time 120 min, read-out: CLH
[8] = Protein binding in mouse brain assessed as unbound fraction by rapid equilibrium dialysis; format: ADME, tissue-based
[9] = Metabolic stability in dog hepatocytes assessed as intrinsic clearance measured per 10^6 cells; format: ADME, cell-based, Canis lupus familiaris, Hepatocyte
Rattus norvegicus [10] = organism: Rattus norvegicus; experiment: Anti-parkinson activity in Sprague-Dawley rat model assessed as decrease in spontaneous firing frequency measured after 15 mins by whole cell patch assay; format: functional, organism-based
[11] = Half life in Sprague-Dawley rat at 3 mg/kg, po by LC-MS/MS analysis; format: ADME, organism-based; conditions: in vivo
[12] = Metabolic stability in mouse hepatocytes assessed as intrinsic clearance measured per 10^6 cells; format: ADME, cell-based, Hepatocyte
[13] = Half life in Sprague-Dawley rat at 10 mg/kg, po by LC-MS/MS analysis; format: ADME, organism-based; conditions: in vivo
[14] = molecular target: Sigma non-opioid intracellular receptor 1 (Cavia porcellus) (UniProt Q60492); experiment: Agonist activity at guinea pig sigma 1 relative to control; conditions: filed as agonist
Sigma non-opioid intracellular receptor 1 (Cavia porcellus), sequence (Q60492 whole entry): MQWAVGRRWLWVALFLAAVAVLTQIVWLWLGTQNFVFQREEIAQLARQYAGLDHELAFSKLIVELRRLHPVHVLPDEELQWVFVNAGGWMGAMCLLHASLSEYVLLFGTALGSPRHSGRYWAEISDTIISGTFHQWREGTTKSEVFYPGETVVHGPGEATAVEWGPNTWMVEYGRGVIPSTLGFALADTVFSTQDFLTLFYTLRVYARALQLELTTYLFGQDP

[15] = Metabolic stability in rat liver microsome assessed as intrinsic clearance preincubated for 60 mins followed by NADPH addition and measured after 60 mins by LC-MS/MS analysis; format: ADME; conditions: liver microsomes, time 120 min, read-out: CLH
Mus musculus [16] = organism: Mus musculus; experiment: Anti-parkinson activity in C57BL6/J mouse model assessed as reduction in 10p 50 Hz induced DA release in striatum by fast-scan cyclic voltammetry analysis; format: functional, organism-based
Rattus norvegicus [17] = organism: Rattus norvegicus; experiment: Antagonist activity at rat I2 receptor relative to control; set-up: scale not given: the % may be the effect or the level left; conditions: filed as antagonist
D(4) dopamine receptor = molecular target: T1, D(4) dopamine receptor (Homo sapiens, UniProt P21917); experiment: Antagonist activity at human D4 receptor; format: functional
T1 sequence (P21917 whole entry): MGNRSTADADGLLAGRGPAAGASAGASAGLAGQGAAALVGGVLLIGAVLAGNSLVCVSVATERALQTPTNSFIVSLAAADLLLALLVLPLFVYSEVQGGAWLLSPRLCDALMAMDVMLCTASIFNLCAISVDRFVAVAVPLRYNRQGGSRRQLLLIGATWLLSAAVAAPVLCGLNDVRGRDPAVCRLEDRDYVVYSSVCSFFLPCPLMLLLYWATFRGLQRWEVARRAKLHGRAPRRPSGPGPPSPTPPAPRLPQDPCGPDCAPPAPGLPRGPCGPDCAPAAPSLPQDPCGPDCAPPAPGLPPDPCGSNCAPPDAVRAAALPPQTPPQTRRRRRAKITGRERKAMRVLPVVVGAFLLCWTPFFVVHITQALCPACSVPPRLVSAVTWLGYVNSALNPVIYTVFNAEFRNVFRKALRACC

[18] = AUC (0 to infinity) in Sprague-Dawley rat at 0.5 mg/kg, iv by LC-MS/MS analysis; format: ADME, organism-based; set-up: dose 0.5 mg/kg, route iv; conditions: in vivo
Rattus norvegicus [19] = experiment: Protection against tacrine-induced Sprague-Dawley rat tremulous jaw model assessed as decrease in tremor jaw movement at 25 mg/kg, po pretreated with compound for 90 mins followed by tacrine addition and measured after 5 mins; format: functional; set-up: scale not given: the % may be the effect or the level left; conditions: time 95 min, 1.583 h
Rattus norvegicus [20] = experiment: Protection against tacrine-induced po dosed Sprague-Dawley rat tremulous jaw model assessed as decrease in tremor duration pretreated with compound for 90 mins followed by tacrine addition and measured after 5 mins; format: functional, organism-based; conditions: dose 3-25 mg/kg, time 95.0 min
Rattus norvegicus [21] = experiment: Protection against tacrine-induced Sprague-Dawley rat tremulous jaw model assessed as decrease in tremor jaw movement at 3 to 25 mg/kg, po pretreated with compound for 90 mins followed by tacrine addition and measured after 5 mins; format: functional, organism-based; conditions: dose 3-25 mg/kg, time 95.0 min
[22] = Oral bioavailability in Sprague-Dawley rat at 10 mg/kg by LC-MS/MS analysis; format: ADME, organism-based; conditions: in vivo
[23] = AUC (0 to infinity) in Sprague-Dawley rat at 1 mg/kg, iv by LC-MS/MS analysis; format: ADME, organism-based; set-up: dose 1 mg/kg, route iv; conditions: in vivo
[24] = Plasma protein binding in rat assessed as unbound fraction by rapid equilibrium dialysis; format: ADME, cell-free
[25] = Plasma protein binding in human assessed as unbound fraction by rapid equilibrium dialysis; format: ADME, cell-free
Mus musculus [26] = organism: Mus musculus; experiment: Anti-parkinson activity in C57BL6/J mouse model assessed as reduction in Ip induced DA release in striatum by fast-scan cyclic voltammetry analysis; format: functional, organism-based
[27] = Metabolic stability in rat hepatocytes assessed as intrinsic clearance measured per 10^6 cells; format: ADME, cell-based, Hepatocyte
[28] = Cmax in Sprague-Dawley rat at 10 mg/kg, po by LC-MS/MS analysis; format: ADME, organism-based; set-up: dose 10 mg/kg, route po; conditions: in vivo
[29] = molecular target: T2, Sodium-dependent noradrenaline transporter (Homo sapiens, UniProt P23975); experiment: Binding affinity to human NET relative to control
T2 sequence (P23975 whole entry): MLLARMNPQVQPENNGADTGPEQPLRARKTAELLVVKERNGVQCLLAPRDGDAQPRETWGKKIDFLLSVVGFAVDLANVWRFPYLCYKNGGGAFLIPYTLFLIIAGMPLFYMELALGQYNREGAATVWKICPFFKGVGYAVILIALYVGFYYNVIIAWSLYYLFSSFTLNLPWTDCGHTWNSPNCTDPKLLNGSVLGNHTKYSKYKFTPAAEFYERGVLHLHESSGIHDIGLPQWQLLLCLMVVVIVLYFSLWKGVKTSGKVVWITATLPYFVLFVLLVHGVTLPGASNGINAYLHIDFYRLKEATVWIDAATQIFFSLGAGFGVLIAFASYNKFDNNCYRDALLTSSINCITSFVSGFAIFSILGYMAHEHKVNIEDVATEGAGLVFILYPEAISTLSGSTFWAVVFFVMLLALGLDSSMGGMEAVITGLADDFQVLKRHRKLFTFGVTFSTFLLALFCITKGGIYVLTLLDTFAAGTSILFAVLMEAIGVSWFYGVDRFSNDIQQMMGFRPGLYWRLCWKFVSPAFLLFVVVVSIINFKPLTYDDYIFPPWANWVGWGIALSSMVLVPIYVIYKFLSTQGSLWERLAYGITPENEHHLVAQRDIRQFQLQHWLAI

[30] = Volume of distribution at steady state in Sprague-Dawley rat at 0.5 mg/kg, iv by LC-MS/MS analysis; format: ADME, organism-based; conditions: in vivo, read-out: Vdss
[31] = AUC (0 to infinity) in Sprague-Dawley rat at 10 mg/kg, po by LC-MS/MS analysis; format: ADME, organism-based; set-up: dose 10 mg/kg, route po; conditions: in vivo
[32] = Metabolic stability in human liver microsome assessed as intrinsic clearance preincubated for 60 mins followed by NADPH addition and measured after 60 mins by LC-MS/MS analysis; format: ADME; conditions: liver microsomes, time 120 min, read-out: CLH
[33] = Protein binding in rat brain assessed as unbound fraction by rapid equilibrium dialysis; format: ADME, tissue-based
[34] = Plasma protein binding in mouse assessed as unbound fraction by rapid equilibrium dialysis; format: ADME, cell-free
[35] = molecular target: T3, D(4) dopamine receptor (Homo sapiens) (UniProt P21917); experiment: Antagonist activity at human D4 receptor relative to control; format: functional; set-up: scale not given: the % may be the effect or the level left; conditions: filed as antagonist
T3 sequence (whole entry): T1 sequence (P21917 whole entry)

[36] = Ratio of drug concentration in Sprague-Dawley rat brain to plasma assessed as unbound fraction at 10 mg/kg, po measured after 6 hrs by LC-MS/MS analysis; format: ADME, organism-based; conditions: read-out: K(p,uu,brain)
[37] = Drug exposure in Sprague-Dawley rat brain at 3 mg/kg, po measured for 2 hrs by LC-MS/MS analysis; format: ADME, organism-based; conditions: read-out: Drug uptake
[38] = molecular target: T2, Sodium-dependent noradrenaline transporter; experiment: Binding affinity to human NET
Mus musculus [39] = organism: Mus musculus; experiment: Anti-parkinson activity in C57BL6/J mouse model assessed as reduction in Ip induced DA release in striatum in presence of DHbetaE by fast-scan cyclic voltammetry analysis; format: functional, organism-based
[40] = molecular target: Neuronal acetylcholine receptor subunit alpha-7 (Homo sapiens) (UniProt P36544); experiment: Antagonist activity at human alpha7 nAChR at 10 uM relative to control; set-up: scale not given: the % may be the effect or the level left
Neuronal acetylcholine receptor subunit alpha-7 (Homo sapiens), sequence (P36544 whole entry): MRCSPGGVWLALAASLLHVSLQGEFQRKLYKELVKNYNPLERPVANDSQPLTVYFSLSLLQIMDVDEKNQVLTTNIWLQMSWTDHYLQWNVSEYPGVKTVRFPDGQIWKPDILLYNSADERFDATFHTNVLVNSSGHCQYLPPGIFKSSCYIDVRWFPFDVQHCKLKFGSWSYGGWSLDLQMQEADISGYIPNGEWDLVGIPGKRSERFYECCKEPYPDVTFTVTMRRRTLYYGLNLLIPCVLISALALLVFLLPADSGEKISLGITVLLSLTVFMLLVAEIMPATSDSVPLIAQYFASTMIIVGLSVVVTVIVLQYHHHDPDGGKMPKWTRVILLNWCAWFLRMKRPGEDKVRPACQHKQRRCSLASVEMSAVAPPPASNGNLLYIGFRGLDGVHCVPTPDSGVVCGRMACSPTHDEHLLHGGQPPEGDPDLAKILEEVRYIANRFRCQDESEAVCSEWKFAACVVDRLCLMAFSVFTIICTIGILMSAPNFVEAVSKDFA

[41] = Metabolic stability in dog liver microsome assessed as intrinsic clearance preincubated for 60 mins followed by NADPH addition and measured after 60 mins by LC-MS/MS analysis; format: ADME, Canis lupus familiaris; conditions: liver microsomes, time 120 min, read-out: CLH
[42] = molecular target: Neuronal acetylcholine receptor; alpha4/beta2 (Homo sapiens, UniProt P17787+P43681); experiment: Antagonist activity at human alpha4/beta2 nAChR expressed in HEK293 cells assessed as nicotine-induced intracellular calcium release incubated for 15 mins by FLIPR analysis; format: cell-based
Neuronal acetylcholine receptor; alpha4/beta2, sequence (P17787 whole entry): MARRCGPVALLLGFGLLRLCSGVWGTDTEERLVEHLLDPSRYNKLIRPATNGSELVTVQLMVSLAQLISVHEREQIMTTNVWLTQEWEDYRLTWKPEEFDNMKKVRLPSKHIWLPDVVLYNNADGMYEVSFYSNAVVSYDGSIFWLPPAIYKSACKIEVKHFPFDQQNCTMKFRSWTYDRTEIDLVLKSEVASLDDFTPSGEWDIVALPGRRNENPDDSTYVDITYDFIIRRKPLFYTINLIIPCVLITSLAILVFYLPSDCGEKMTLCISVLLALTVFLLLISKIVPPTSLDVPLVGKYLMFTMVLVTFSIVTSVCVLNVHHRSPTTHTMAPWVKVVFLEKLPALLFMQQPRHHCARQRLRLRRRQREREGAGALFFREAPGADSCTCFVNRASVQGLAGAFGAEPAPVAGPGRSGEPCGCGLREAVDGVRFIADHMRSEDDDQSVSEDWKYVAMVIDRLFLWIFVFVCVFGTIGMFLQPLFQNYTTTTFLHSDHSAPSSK
Neuronal acetylcholine receptor; alpha4/beta2, sequence (P43681 whole entry): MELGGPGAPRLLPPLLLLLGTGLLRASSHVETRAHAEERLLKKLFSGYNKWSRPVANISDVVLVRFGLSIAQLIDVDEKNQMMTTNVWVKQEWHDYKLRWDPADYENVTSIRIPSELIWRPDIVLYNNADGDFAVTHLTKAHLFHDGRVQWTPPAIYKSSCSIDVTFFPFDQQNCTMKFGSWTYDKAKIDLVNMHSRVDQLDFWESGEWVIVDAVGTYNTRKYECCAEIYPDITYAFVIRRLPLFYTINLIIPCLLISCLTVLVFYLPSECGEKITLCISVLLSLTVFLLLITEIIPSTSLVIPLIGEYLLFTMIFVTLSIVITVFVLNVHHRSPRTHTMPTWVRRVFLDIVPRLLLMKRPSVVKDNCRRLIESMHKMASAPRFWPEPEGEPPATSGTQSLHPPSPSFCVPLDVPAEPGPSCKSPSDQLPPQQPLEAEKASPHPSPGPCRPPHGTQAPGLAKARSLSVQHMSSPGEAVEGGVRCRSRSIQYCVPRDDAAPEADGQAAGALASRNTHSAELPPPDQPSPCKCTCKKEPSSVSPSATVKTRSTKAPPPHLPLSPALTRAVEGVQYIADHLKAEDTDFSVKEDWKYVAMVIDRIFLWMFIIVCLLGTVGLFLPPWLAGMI

Mus musculus [43] = organism: Mus musculus; experiment: Anti-parkinson activity in C57BL6/J mouse model assessed as reduction in 5p 50 Hz induced DA release in striatum by fast-scan cyclic voltammetry analysis; format: functional, organism-based
[44] = Oral bioavailability in Sprague-Dawley rat 3 mg/kg by LC-MS/MS analysis; format: ADME, organism-based; conditions: in vivo
[45] = Metabolic stability in rat liver microsome assessed as clearance preincubated for 60 mins followed by NADPH addition and measured after 60 mins by LC-MS/MS analysis; format: ADME; conditions: liver microsomes, time 120 min, read-out: CLH
[46] = Intrinsic clearance in Sprague-Dawley rat at 0.5 mg/kg, iv by LC-MS/MS analysis; format: ADME, organism-based; conditions: in vivo
[47] = Metabolic stability in human liver microsome assessed as clearance preincubated for 60 mins followed by NADPH addition and measured after 60 mins by LC-MS/MS analysis; format: ADME; conditions: liver microsomes, time 120 min, read-out: CLH

SMILES: COc1ccc(-c2cc(C(=O)N[C@H]3CCCN(C)C3)nn2C)c(Cl)c1
Drug uptake (Brain): Dose-Dependent Effect | IC50 [2]: 2560 nM | clearance [3]: 38.2 mL/min/kg | CLint [4]: 3.7 µL/min/1e6 cells | bioavailability [5]: 43.8% | Vd [6]: 11.4 L/kg | microsomal CLint [7]: 33.3 µL/min/mg | fraction unbound [8]: 0.053 | CLint [9]: 32.3 µL/min/1e6 cells | Activity (Rattus norvegicus [10]): Active | half-life [11]: 7.8 h | CLint [12]: 25.1 µL/min/1e6 cells | half-life [13]: 5.9 h | Activity [14]: 51% | microsomal CLint [15]: 31.2 µL/min/mg | Activity (Mus musculus [16]): Active | Activity (Rattus norvegicus [17]): 84% | IC50 (D(4) dopamine receptor): 1290 nM | AUC(0-inf) [18]: 205 ng·h/mL | Activity (Rattus norvegicus [19]): 18.9% | Activity (Rattus norvegicus [20]): Dose-Dependent Effect | Activity (Rattus norvegicus [21]): Active | bioavailability [22]: 11% | AUC [23]: 13.5 ng·h/mL | fraction unbound [24]: 0.202 | fraction unbound [25]: 0.3 | IC50 [1]: 86 nM | Activity (Mus musculus [26]): Active | CLint [27]: 20.8 µL/min/1e6 cells | Cmax [28]: 350 nM | Activity [29]: 62% | Vd [30]: 12.3 L/kg | AUC(0-inf) [31]: 775 ng·h/mL | microsomal CLint [32]: 2.8 µL/min/mg | fraction unbound [33]: 0.068 | fraction unbound [34]: 0.25 | Activity [35]: 90% | Kp uu at 6 h [36]: 1.4 | concentration at 2 h [37]: 1820 nM | IC50 [38]: 44700 nM | Activity (Mus musculus [39]): Active | Activity [40]: 13% | microsomal CLint [41]: 27.7 µL/min/mg | IC50 [42]: 657 nM | Activity (Mus musculus [43]): Active

SMILES: CCCN(CCC)CCc1cccc2c1CC(=O)N2 [ROPINIROLE]
Activity (Rattus norvegicus [19]): 17.5%

SMILES: Cn1nc(C(=O)NCCN2CCCCC2)cc1-c1ccc(C(F)(F)F)cc1
IC50 [2]: 450 nM | bioavailability [44]: 82% | microsomal CLint [45]: 3.1 µL/min/mg | IC50 [1]: 60 nM | CL [46]: 64.9 mL/min/kg | microsomal CLint [47]: 3.1 µL/min/mg | Vd [30]: 29.8 L/kg | concentration at 2 h [37]: 524 nM | IC50 [42]: 3180 nM

Results, then the molecule that gave them:

IC50 [1]: 83 nM
SMILES: CN1CCC[C@H](NC(=O)c2cc(-c3ccc(C(F)(F)F)cc3Cl)n(C)n2)C1

IC50 [2]: > 10000 nM | IC50 [1]: 230 nM | IC50 [42]: 3500 nM
SMILES: COc1ccc(-c2cc(C(=O)N[C@@H]3CCCN(C)C3)nn2C)cc1
